Source: US4129577A (priority 1977, dated 1978)

Key:
[1] = test system: KB cell; format: cell-based, human; conditions: for Activity in μg/ml (ED50 = concentration causing 50% inhibition of growth): kb cells
[2] = test system: pigeons; conditions: in vivo, po
[3] = test system: mice; conditions: mouse, in vivo, ip
[4] = test system: pigeons; conditions: in vivo

Q: How did the “Activity in μg/ml (ED50 = concentration causing 50% inhibition of growth)” value [1] turn out when `CCC(=O)OC1C2OC3C=C(C)C(OC(=O)CC(C)C)CC3(COC(C)=O)C(C)(C1OC(C)=O)C21CO1` (stereo not shown) [PT-2] was run?
A: The value was 10^-8 μg/ml.

Q: How did the “times more active than T-2 toxin” value [1] turn out when `CC(=O)OCC12CC(OC(=O)CC(C)C)C(C)=CC1OC1C(OC(C)=O)C(OC(C)=O)C2(C)C12CO2` (stereo not shown) [AT-2] was run?
A: Its value is “about 5,000 times”.

Q: What about the “Activity in μg/ml (ED50 = concentration causing 50% inhibition of growth)” value [1] of the same molecule?
A: Its value is 10^-8 μg/ml.

Q: What about the “toxicity relative to T-2 toxin” value [2] of the same molecule?
A: The value was “less than 1/6”.

Q: What about the “toxicity relative to T-2 toxin” value [3] of the same molecule?
A: The value was “less than 1/2”.

Q: And the vomiting [4]?
A: The vomiting was “virtually completely eliminated”.

Q: For `CC(=O)OCC12CC(OC(=O)CC(C)C)C(C)=CC1OC1C(OC(=O)c3ccccc3)C(OC(C)=O)C2(C)C12CO2` (stereo not shown) [BzT-2], which “Activity in μg/ml (ED50 = concentration causing 50% inhibition of growth)” value [1] is on record?
A: Its value is 10 µg/mL.
